For orientation: EC50 means the concentration that produces a half-maximal response. As usually defined, the Emax is the size of the effect at its maximum, as opposed to the concentration needed.

Where two headings read alike, the source gives them in different places. Bounds are passed on as bounds.

The test deals with AML samples (live leukemic cells from bone marrow or peripheral blood of patients). Description: Ex-vivo effect on AML patient samples (depletion of live leukemic cells, flow cytometry, Annexin V). It is filed as cell-based, human. The protocol:
Patient samples were obtained from a non-interventional and prospective study. The study included samples from adult patients over 18 years of age who were diagnosed with Acute Myeloid Leukemia (AML).
In one embodiment, the method of data acquisition was performed as follows: on day 1 bone marrow (BM) or peripheral blood (PB) patient sample was received. A small part was separated from the rest of the sample for validation, while the majority of the sample was diluted with culture media and plated into 96-well plates previously prepared with the desired compounds and compound combinations, e.g., a compound or compound combination described herein. The number of live leukemic cells seeded in each well was fixed between 8000 and 32000, depending on the percentage of leukemic cells for each sample. […] Antibodies were added to identify leukemic cells using a gating strategy based on FSC/SSC and expression or lack of expression of different surface markers. The monoclonal antibodies selection was performed to optimize the identification of leukemic cell in each sample.
In one embodiment, non-limiting examples of biomarkers such as the biomarkers CD34, CD45, CD117, and HLADR known as “backbone markers” for AML (van Dongen, J. J. and A. Orfao, EuroFlow: Resetting leukemia and lymphoma immunophenotyping. Basis for companion diagnostics and personalized medicine, Leukemia, 2012, 26, 1899-907) were included in the combination.
In one embodiment, antibody combinations such as CD117/CD45, CD34/CD45, and HLADR/CD45 were used. Live leukemic cells were identified by their light scatter properties (FSC^int/hi/SSC^int) in the absence of Annexin-V-FITC staining. FSC/SSC selection was performed to exclude debris. The average percentage of cell viability upon receipt of the sample was 80% and samples were only processed if the viability was greater than 50%.
In one embodiment, sample validation was performed as follows: BM and PB samples were extracted under sterile conditions and received in the laboratory within 24 hours of extraction. Initial analysis evaluated the number of pathological cells and their viability. Different volumes of sample (1 μL, 3 μL, 5 μL and 7 μL) were aliquoted in duplicate into a 96-well plate. To lyse red blood cells, 180 μL of ammonium chloride lysis solution was added to each well (2 g KHCO3, 16.58 g NH4Cl, 0.074 g Na2EDTA2.H2O, H2O to […]). Following a 10 min incubation period at 4° C., plate was centrifuged for 5 min at 1200 rpm and the supernatant removed. The lysis step was performed twice. To analyze, 20 μL of a combination of Annexin V-FITC (Immunostep, Salamanca, Spain), binding buffer (BB, 2.4 g HEPES, 8.19 g NaCl, 0.37 g Cl2Ca, H2O to […]), and the following monoclonal antibodies (mAb) were added to each well: CD117 (clone 104D2)-PE (Becton Dickinson, San Jose, Calif., US), CD34 (clone 581)-PerCP (BioLegend, San Diego, Calif., US), HLADR (clone L243)-PB (BioLegend) and CD45 (HI30)-PO (Life Technologies, Carlsbad, Calif., US) (van Dongen, J. J., et al., EuroFlow antibody panels for standardized n-dimensional flow cytometric immunophenotyping of normal, reactive and malignant leukocytes, Leukemia, 2012, 26, 1908-75). After 15 min of incubation at room temperature in the dark, a wash step was performed using binding buffer solution. The pellet was resuspended in 30 μL BB for analysis in Vivia's ExviTech© platform. Cell count and viability upon arrival were computed and the optimal volume of sample to use per well was determined.
In one embodiment, the assay was performed according to following method: the whole sample was diluted with RPMI 1640, supplemented with 20% (v/v) FBS (Thermo Scientific, Waltham, Mass., US), 2% HEPES, 1% antibiotic (Zell Shield, Labclinics, Barcelona, Spain) and 1% L-glutamine 200 mM (Lonza, Hopkinton, Mass., US) to a final volume of 60 μL per well. […]

The mark [1] stands for this setting: Homo sapiens, 72 h, plates incubated for 72 hours.
Where [2] appears, read: Homo sapiens, 72 h, plates incubated for 72 hours, read-out: Emax.
[3] abbreviates: Homo sapiens, 48 h, plates incubated for 48 hours.
The mark [4] stands for this setting: Homo sapiens, 48 h, plates incubated for 48 hours, read-out: Emax.

For `Nc1nc(Cl)nc2c1ncn2[C@@H]1O[C@H](COP(=O)(O)NCc2ccccc2)C(O)C1F` (stereo partly shown), under setting [1], the EC50 is not above 1 µM. Besides, the Emax under setting [2] lay within 0 to 10%.
`COC(=O)[C@H](CC(C)C)NP(=O)(N[C@@H](CC(C)C)C(=O)OC)OC[C@H]1O[C@@H](n2cnc3c(N)nc(Cl)nc32)C(F)C1O` (stereo partly shown): the EC50 under setting [1] was 1 to 10 µM. Further, the Emax under setting [2] was more than 20%.
The matching figures for `Nc1ccn([C@@H]2O[C@H](COP(=O)(O)NCc3ccccc3)C(O)C2O)c(=O)n1` (stereo partly shown): 10 to 20 µM and 0 to 10%.
Take `CCCCCCCC/C=C/CCCCCCCC(=O)Nc1ccn([C@@H]2O[C@H](COP(=O)(N[C@@H](CC(C)C)C(=O)OC)N[C@@H](CC(C)C)C(=O)OC)C(O)C2O)c(=O)n1` (stereo partly shown): the EC50 under setting [1] lay in the range of 10 to 20 µM. Moreover, the Emax under setting [2] is more than 20%.
The matching figures for `CC(C)(CO)C(=O)SCCOP(=O)(NCc1ccccc1)OC[C@H]1O[C@@H](n2ccc(N)nc2=O)C(O)C1O` (stereo partly shown): 10 to 20 µM and 0 to 10%.
Consider `CC(C)(O)C(=O)SCCOP(=O)(OCCSC(=O)C(C)(C)CO)OC[C@H]1O[C@@H](N2C=NC3C(N)=NC(Cl)=NC32)[C@@H](F)[C@@H]1O` (stereo partly shown), for which the EC50 under setting [1] was in the range of 1 to 10 µM. Under setting [2], the Emax fell in the range of 10 to 20%.
In the case of `CC(C)OC(=O)[C@H](C)NP(=O)(OC[C@H]1O[C@@H](n2cnc3c(N)nc(F)nc32)[C@@H](O)[C@@H]1O)Oc1ccccc1` (stereo partly shown), the EC50 (Homo sapiens, plates incubated for 48 hours) was not below 20 µM. In addition, under “Homo sapiens, plates incubated for 48 hours, read-out: Emax”, the Emax lay in the range of 0 to 10%.
For `Nc1nc(F)nc2c1ncn2[C@@H]1O[C@H](COP(=O)(O)NCc2ccccc2)[C@@H](O)[C@@H]1O`, the EC50 under setting [3] lay within 1 to 10 µM. Under setting [4], the Emax was 0 to 10%.
The matching figures for `CCOC(=O)[C@H](CC(C)C)NP(=O)(O)OC[C@H]1O[C@@H](N2C=NC3C(N)=NC(F)=NC32)[C@@H](O)[C@@H]1O` (stereo partly shown): 10 to 20 µM and more than 20%.
Regarding `COC(=O)[C@H](CC(C)C)NP(=O)(N[C@@H](CC(C)C)C(=O)OC)OC[C@H]1O[C@@H](N2C=NC3C(N)=NC(F)=NC32)[C@@H](O)[C@@H]1O` (stereo partly shown), the EC50 under setting [3] is not below 20 µM. Further, the Emax under setting [4] is 10 to 20%.
The matching figures for `COC(=O)COP(=O)(NC(CC(C)C)C(=O)OC)OC[C@H]1O[C@@H](n2cnc3c(N)nc(F)nc32)[C@@H](O)[C@@H]1O` (stereo partly shown): 1 to 10 µM and 0 to 10%.
For the compound `CCOC(=O)C(C)NP1(=O)OCC2O[C@@H](n3cnc4c(N)nc(Cl)nc43)[C@@H](F)[C@@H]2O1` (single isomer, unassigned) [drawing 653], under “plates incubated for 72 hours”, the EC50 was not above 1 µM and the Emax result is “A (A=0-10%)”.
The matching figures for `CCOC(=O)C(C)NP1(=O)OCC2O[C@@H](n3cnc4c(N)nc(Cl)nc43)[C@@H](F)[C@@H]2O1` (single isomer, unassigned) [drawing 654]: 10 to 20 µM and “B (B=10-20%)”.
Turning to `CC(C)(CO)C(=O)SCCOP(=O)(NCc1ccccc1)OC[C@H]1O[C@@H](n2cnc3c(N)nc(Cl)nc32)C(F)C1O` (single isomer, unassigned) [drawing 657], the EC50 under setting [1] was not above 1 µM. The Emax under setting [2] was 10 to 20%.
As for `CC(C)(CO)C(=O)SCCOP(=O)(NCc1ccccc1)OC[C@H]1O[C@@H](n2cnc3c(N)nc(Cl)nc32)C(F)C1O` (single isomer, unassigned) [drawing 658], where the note is “plates incubated for 72 hours”, the EC50 lay in the range of 1 to 10 µM and the Emax entry is listed as “B (B=10-20%)”.
For `COC(=O)COP(=O)(N[C@@H](CC(C)C)C(=O)OC)OC[C@H]1O[C@@H](n2cnc3c(N)nc(Cl)nc32)C(F)C1O` (single isomer, unassigned) [drawing 659], the EC50 under setting [1] is 1 to 10 µM. The Emax under setting [2] is more than 20%.
Turning to `COC(=O)COP(=O)(N[C@@H](CC(C)C)C(=O)OC)OC[C@H]1O[C@@H](n2cnc3c(N)nc(Cl)nc32)C(F)C1O` (single isomer, unassigned) [drawing 660], under “plates incubated for 72 hours”, the EC50 lay within 1 to 10 µM and the Emax result was “B (B=10-20%)”.
For `COC(=O)COP(=O)(N[C@@H](CC(C)C)C(=O)OC)OC[C@H]1O[C@@H](n2ccc(N)nc2=O)C(O)C1O` (single isomer, unassigned) [drawing 662], for the setting “plates incubated for 72 hours”, the EC50 is 1 to 10 µM and the Emax result is recorded as “B (B=10-20%)”.
Take `COC(=O)COP(=O)(N[C@@H](CC(C)C)C(=O)OC)OC[C@H]1O[C@@H](n2ccc(N)nc2=O)C(O)C1O` (single isomer, unassigned) [drawing 663]: for the setting “plates incubated for 72 hours”, the EC50 lay within 10 to 20 µM and the Emax entry is “A (A=0-10%)”.
For `CCOC(=O)[C@H](CC(C)C)NP(=O)(OCC(=O)OC)OC[C@H]1O[C@@H](n2ccc(N)nc2=O)C(O)C1O` (single isomer, unassigned) [drawing 664], the EC50 under setting [1] lay in the range of 1 to 10 µM. Besides, the Emax under setting [2] fell in the range of 0 to 10%.
As for `CCOC(=O)[C@H](CC(C)C)NP(=O)(OCC(=O)OC)OC[C@H]1O[C@@H](n2ccc(N)nc2=O)C(O)C1O` (single isomer, unassigned) [drawing 665], the EC50 (plates incubated for 72 hours) lay within 1 to 10 µM.
With `Cn1c(COP(=O)(NCc2ccccc2)OC[C@H]2O[C@@H](n3ccc(N)nc3=O)C(O)C2O)cnc1[N+](=O)[O-]` (single isomer, unassigned) [drawing 666], the EC50 under setting [1] fell in the range of 1 to 10 µM. The Emax under setting [2] fell in the range of 0 to 10%.
Consider `Cn1c(COP(=O)(NCc2ccccc2)OC[C@H]2O[C@@H](n3ccc(N)nc3=O)C(O)C2O)cnc1[N+](=O)[O-]` (single isomer, unassigned) [drawing 667], for which the EC50 (plates incubated for 72 hours) lay within 1 to 10 µM.
As for `CCOC(=O)[C@H](CC(C)C)NP1(=O)OC[C@H]2O[C@@H](n3cnc4c(N)nc(F)nc43)[C@@H](O)[C@@H]2O1` (single isomer, unassigned) [drawing 672], the EC50 under setting [3] was in the range of 10 to 20 µM. For the setting “plates incubated for 48 hours”, the Emax entry is recorded as “C (C>20%)”.
For the compound `CCOC(=O)[C@H](CC(C)C)NP1(=O)OC[C@H]2O[C@@H](n3cnc4c(N)nc(F)nc43)[C@@H](O)[C@@H]2O1` (single isomer, unassigned) [drawing 673], where the note is “plates incubated for 48 hours”, the EC50 was not below 20 µM and the Emax entry was “A (A=0-10%)”.
In the case of `CC(C)OP1(=O)OC[C@H]2O[C@@H](N3C=NC4C(N)=NC(F)=NC43)[C@@H](O)[C@@H]2O1` (single isomer, unassigned) [drawing 675], the EC50 under setting [3] fell in the range of 10 to 20 µM. The Emax under setting [4] is more than 20%.
Turning to `CC(C)OP1(=O)OC[C@H]2O[C@@H](N3C=NC4C(N)=NC(F)=NC43)[C@@H](O)[C@@H]2O1` (single isomer, unassigned) [drawing 676], where the note is “plates incubated for 48 hours”, the EC50 is not below 20 µM and the Emax result was “C (C>20%)”.
As for `CCOC(=O)[C@H](C)NP1(=O)OC[C@H]2O[C@@H](n3cnc4c(N)nc(F)nc43)[C@@H](O)[C@@H]2O1` (single isomer, unassigned) [drawing 680], the EC50 under setting [3] lay in the range of 10 to 20 µM. The Emax under setting [4] was more than 20%.
On to `CCOC(=O)[C@H](C)NP1(=O)OC[C@H]2O[C@@H](n3cnc4c(N)nc(F)nc43)[C@@H](O)[C@@H]2O1` (single isomer, unassigned) [drawing 681], for which the EC50 (plates incubated for 48 hours) is 10 to 20 µM.
